SMILES strings stand for the structures.

The record followed here is patent publication US8686190B2, “Bis-aromatic anticancer agents” (The UAB Research Foundation, priority 2008, dated 2014).

One assay has as its system MIA PaCa-2. In words: Cytotoxicity screening, MIA PaCa-2 cells. It counts as cell-based. The settings on record: Homo sapiens; for inhibition at 10 µM: treatment at 10 μM, 24 h treatment then 96 h incubation; for IC50: read-out: IC50, drug dose to inhibit 50% cell proliferation. The method, then: (§1) Tumor cells were maintained as monolayers in 75-cm^2 tissue culture flasks using their respective cell culture medium containing 10% fetal bovine serum and 2 mM L-glutamine. The cells were incubated at 37° C. under a humidified 5% CO2: air atmosphere (standard conditions) for five days. The cells were harvested when in mid-log growth and their concentration was determined using a particle counter (Beckman Coulter, Inc, Fullerton, Calif.). An aliquot of the cell suspension was diluted in culture medium for delivery to a 24-well tissue culture plate at a range of 10,000 to 30,000 per 1 mL per well. After 24 h, quadruplicate wells were inoculated with either vehicle (untreated controls) or test compounds at various concentrations. After 24 h of incubation, the wells were aspirated, washed once with 1 mL PBS, and refilled with 1 mL treatment-free medium. Following a 96-h incubation under the initial treatment conditions, the viable cells were counted and the numbers were normalized to the percent of untreated controls. The extent of cytotoxicity in treated wells as compared to the controls and the dose that inhibits 50% cell proliferation (IC50) was calculated.

For another assay, the system named is PC-3. In words: Cytotoxicity screening, PC-3 cells. The settings on record: Homo sapiens; for inhibition at 10 µM: treatment at 10 μM, 24 h treatment then 96 h incubation, read-out: Inhibition: percent cell death normalized against controls; for IC50: read-out: IC50, drug dose to inhibit 50% cell proliferation. It counts as cell-based. The procedure: as §1
The next assay deals with Panc-1. In words: Cytotoxicity screening, Panc-1 cells. It counts as cell-based. The conditions noted are these: Homo sapiens; for inhibition at 10 µM: Panc-1, treatment at 10 μM, 24 h treatment then 96 h incubation, read-out: Inhibition: percent cell death normalized against controls. The method, then: as §1
The subject of a further assay is LS174-T. Nature of the assay: Cytotoxicity screening, LS174-T cells. The conditions noted are these: Homo sapiens, LS174T; for IC50: read-out: IC50, drug dose to inhibit 50% cell proliferation; for inhibition at 10 µM: treatment at 10 μM, 24 h treatment then 96 h incubation. It counts as cell-based. The procedure:
as §1

The subject of assay [1] is LS174-T human colon carcinoma tumors. In words: Evaluation of antitumor activity, nude mouse model of LS174-T tumors. It counts as in vivo. The settings on record: female nude mice, sc LS174-T tumors, iv qdx5; untreated control 15 days; n=8, p=0.043. The method, then: Antitumor activity of compound II-e was evaluated using a nude mouse model of Ls174-T human colon cancer tumors. Female nude mice were implanted subcutaneously (sc) with LS174-T human colon carcinoma cells (10^7 cells/mouse). When tumors reached a cross diameter of 7 mm, the mice were randomized into 2×8 groups and were injected iv with either the vehicle (5% dextrose solution containing 20% 50:50, Cremophore EL: ethanol)) or a solution II-e in the same solvent system. The protocol used was qdx5 injections every 24 h. Tumor volumes were monitored by caliper measurement 3× weekly (see FIG. 1 wherein circles correspond to inactivated compound IIe; triangles correspond to vehicle; and squares correspond to compound II-e).

Setting [2] is: read-out: Inhibition: percent cell death normalized against controls.
[3] abbreviates: measured at 7.5 μM, read-out: Inhibition: percent cell death normalized against controls.

As to `CC(=O)C(CSCC(C(C)=O)c1cc(C(F)(F)F)cc(C(F)(F)F)c1)c1cc(C(F)(F)F)cc(C(F)(F)F)c1` (stereo not shown) [II-e bis-OAc, 4,4′-thiobis(3-(3,5-bis(trifluoromethyl)phenyl)butan-2-one)], the inhibition (commonly the relative decrease from the control value, in per cent) at 10 µM in the assay with MIA PaCa-2 (setting [2]) amounted to 29 ± 6%.
Regarding `OC(CSCC(O)c1ccccc1)c1ccccc1` (stereo not shown) [II-a], the inhibition at 10 µM with PC-3 came to 5 ± 9%.
Regarding `OC(CSCC(O)c1cc(C(F)(F)F)cc(C(F)(F)F)c1)c1cc(C(F)(F)F)cc(C(F)(F)F)c1` (stereo not shown) [II-e], the inhibition at 7.5 µM with MIA PaCa-2 (setting [3]) stood at 94 ± 2%; in the assay with LS174-T (setting [3]) it was 96 ± 1%. The IC50 in the assay on MIA PaCa-2 worked out at 3.7 µM; with Panc-1 (PANC-1, read-out: IC50, drug dose to inhibit 50% cell proliferation), 6.3 µM; with LS174-T, 3.6 µM; in the assay with PC-3, 4.4 µM. Also, the inhibition at 10 µM with MIA PaCa-2 (setting [2]) worked out at 94 ± 2%; in the assay on Panc-1, 80 ± 4%; in the assay with LS174-T (setting [2]) it was 96%; with PC-3 it was 78 ± 4%. Also, the Tumor doubling time in assay [1] was determined as 30 days.
For the compound `COc1cc(/C=C/C(=O)CC(=O)/C=C/c2ccc(O)c(OC)c2)ccc1O` [curcumin, reference compound], the values for the IC50 in the assay on MIA PaCa-2, in the assay with LS174-T and in the assay on PC-3 were 9 µM, 6.5 µM and 12 µM, respectively.
Regarding `COc1cccc(C(O)CSCC(O)c2cccc(OC)c2OC)c1OC` (stereo not shown) [II-b], the inhibition at 10 µM with MIA PaCa-2 (setting [2]) turned out to be 0%; with Panc-1, 0%; in the assay on LS174-T (setting [2]) it was 0%; with PC-3 it was 8 ± 4%.
Turning to `OC(CSCC(O)c1ccc(C(F)(F)F)cc1)c1ccc(C(F)(F)F)cc1` (stereo not shown) [II-d], the inhibition at 10 µM turned out to be 11 ± 4% with MIA PaCa-2 (setting [2]), 27 ± 5% in the assay with Panc-1, 33 ± 6% in the assay with LS174-T (setting [2]) and 43 ± 4% with PC-3.
Consider `OC(CSCC(O)c1ccc(OC(F)(F)F)cc1)c1ccc(OC(F)(F)F)cc1` (stereo not shown) [II-c], for which the inhibition at 10 µM with MIA PaCa-2 (setting [2]) is 34 ± 14%; in the assay with Panc-1 it was 43 ± 9%; in the assay with LS174-T (setting [2]), 13 ± 7%; with PC-3 it was 40 ± 7%.
